Measured values from patent US10233195B2, “Anti-fibrotic pyridinones” (InterMune, Inc., priority 2014, dated 2019).

Key:
[1] = system: TGF-b induced Endothelin-1 production; experiment: ET-1 assay: inhibitory effect on TGF-b induced endothelin-1 production; format: cell-based; conditions: Homo sapiens, Fibroblast; fibroblasts, stimulant (TGFb, serum, LPA etc), ET-1 in media by ELISA, 4-parameter fit
Summary of the method: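 Fibroblasts (primary human lung/dermal, HFL-1, 3T3) serum-starved 0-48 h, preincubated ~30 min with compound, then stimulated (TGFb, serum or LPA) for 16-48 h. Secreted ET-1 measured by ELISA; EC50 from 4-parameter logistic fit, with CC50 from ATPlite in the same wells.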

[2] = system: Fibroblasts (primary human lung and dermal, HFL-1, 3T3 etc); experiment: Cell proliferation assay (BrdU incorporation); format: cell-based; conditions: HFL1, stimulant (LPA, TGFb, serum etc), 50% inhibition of the increase of BrdU incorporation
Method: Assay of Inhibitory Effect on Cell Proliferation (BrdU Incorporation)
Fibroblasts (primary human lung and dermal, HFL-1, 3T3 etc) were plated on a 96-well plate and serum starved for 24-48 hours. The media were then exchanged for media containing stimulants (LPA, TGFb, serum etc) and cultured further for 16-24 hours before BrdU addition. After culturing for another 8 hours, cells were washed with PBS and the amount of BrdU incorporated into the cells was assayed by absorbance at 450 nm using the Cell proliferation ELISA system (RPN250, Amersham LIFE SCIENCE). The difference between the amount of BrdU incorporated in the stimulant-added well and the amount of BrdU incorporated in the well containing no stimulant represented the amount of BrdU incorporation accelerated by stimulant. The increase of BrdU incorporation without the addition of test compounds was set as 100% and the concentration of compound with 50% inhibition in the increase of BrdU incorporation (IC50 value) was determined. The test compounds were added 0-30 min before stimulant addition.
Compounds of some embodiments were prepared according to synthetic methods described herein and assay data obtained for IC50 for BrdU inhibition. The assay data obtained is presented in Table 3, in which A=less than 50 μM, B=greater than or equal to 50 μM and less than or equal to 200 μM; and C=greater than 200 μM.

Compound	EC50 [1] [µM]	IC50 [2] [µM]
Cc1cc(=O)n(-c2ccc(OC(F)(F)F)cc2)cc1-c1cccc(F)c1 [Compound 192]	< 50	< 50
Cc1cc(=O)n(-c2ccc(OC(F)(F)F)cc2)cc1-c1ccc2c(c1)OCC(=O)N2 [Compound 424]	50 to 200	< 50
Cc1cc(=O)n(-c2ccc(OC(F)(F)F)cc2)cc1-c1cccc2c1OCCO2 [Compound 204]	< 50	< 50
O=c1cc(Cl)c(-c2ccc(F)cc2)cn1-c1ccc(OC(F)(F)F)cc1 [Compound 87]	< 50	< 50
CCn1ccc2c(-c3ccc(F)cc3)cn(-c3ccc(OC(F)(F)F)cc3)c(=O)c21 [Compound 594]	< 50	< 50
Cn1cc(-c2cn(-c3ccccc3)c(=O)c3c2CCCC3)cn1 [Compound 31]	< 50	50 to 200
Cn1cc(-c2cn(-c3ccc(OC(F)(F)F)cc3)c(=O)cc2Oc2ccccc2Cl)cn1 [Compound 414]	< 50	< 50
Cc1cc(=O)n(-c2ccc(OC(F)(F)F)cc2)cc1-c1ccc2nccn2c1 [Compound 252]	50 to 200	50 to 200
Cc1cc(=O)n(-c2ccc(OC(F)(F)F)cc2)cc1-c1ccc2ccn(C)c2c1 [Compound 258]	< 50	< 50
Cn1cc(-c2cn(-c3ccc(C#N)cc3)c(=O)c3cccnc23)cn1 [Compound 395]	50 to 200	50 to 200
CCOc1ccc(-n2cc(-c3cnn(C)c3)c(Oc3ccccc3)cc2=O)c(C)c1 [Compound 403]	< 50	< 50
Cc1cc(=O)n(-c2ccc(Cl)cc2)cc1-c1cn[nH]c1 [Compound 431]	> 200	50 to 200
Cc1ccc(-n2cc(-c3ccc(F)cc3)c(C)cc2=O)cc1 [Compound 216]	50 to 200	< 50
Cc1nc2c(-c3cnn(C)c3)cn(-c3ccc(OC(F)(F)F)cc3)c(=O)c2s1 [compound 584]	< 50	< 50
Cc1cc(=O)n(-c2ccc(OC(F)(F)F)cc2)cc1-c1cccc2c1OCO2 [Compound 203]	< 50	< 50
Cc1cc(-c2ccc(F)cc2)cn(-c2ccccc2)c1=O [Compound 351]	< 50	50 to 200
CCn1nnc2c(=O)n(-c3ccc(OC(F)(F)F)cc3)cc(-c3cnn(C)c3)c21 [Compound 624]	< 50	< 50
Cc1ccc(=O)n(-c2ccc(OC(F)(F)F)cc2)n1 [Compound 360]	< 50	50 to 200
O=C(c1ccccc1)n1cc(-c2ccc(=O)n(-c3ccccc3)c2)cn1 [Compound 68]	> 200	> 200
CCOc1ccc(-n2cc(C(F)(F)F)ccc2=O)c(C)c1 [Compound 278]	50 to 200	50 to 200
Cc1cc(=O)[nH]cc1-c1ccc2c(c1)OCC(=O)N2C [Compound 563]	< 50	< 50
Cc1n[nH]c(C)c1-c1ccc(=O)n(-c2ccc(OC(F)(F)F)cc2)c1 [Compound 383]	50 to 200	50 to 200
Cc1cc(=O)n(-c2ccc(OC(F)(F)F)cc2)cc1-c1ccnnc1 [Compound 243]	50 to 200	> 200
CCOc1ccc(-n2cc(-c3cnn(C)c3)c(NCc3ccccc3)cc2=O)c(C)c1 [Compound 543]	< 50	< 50
CCn1nc2c(-c3cn[nH]c3)cn(-c3ccc(OC(F)(F)F)cc3)c(=O)c2n1 [Compound 620]	< 50	< 50
Cn1cc(-c2cn(-c3ccc(OC(F)(F)F)cc3)c(=O)cc2Oc2ccccc2)cn1 [Compound 153]	< 50	< 50

Compound	EC50 [1] [µM]	IC50 [2] [µM]
CCn1cnc2c(=O)n(-c3ccc(OC(F)(F)F)cc3)cc(-c3cnn(C)c3)c21 [Compound 636]	> 200	> 200
Cn1cc(-c2cn(-c3ccc(OC(F)(F)F)cc3)c(=O)c3c2nnn3CCF)cn1 [Compound 684]	50 to 200	< 50
CCOc1ccc(-n2cc(-c3cn[nH]c3)ccc2=O)c(C)c1 [Compound 376]	< 50	> 200
Cn1cc(-c2cn(-c3ccc(OC(F)(F)F)cc3)c(=O)c3c2OCC(=O)N3Cc2ccccc2)cn1 [Compound 50]	> 200	< 50
Cc1cc(=O)n(-c2ccc(OC(F)(F)F)cc2)cc1-c1ccc2c(c1)N(C)C(=O)CO2 [Compound 210]	< 50	> 200
Cc1cc(=O)n(-c2cccc3c2OCCO3)cc1-c1ccc(F)cc1 [Compound 185]	50 to 200	< 50
Cc1cc(=O)n(-c2ccc(OC(F)(F)F)cc2)cc1-c1cccc2scnc12 [Compound 261]	> 200	< 50
Cc1cc(=O)n(-c2ccc(OC(F)(F)F)cc2)cc1-c1ccc2ocnc2c1 [Compound 254]	< 50	< 50
Cn1cc(-c2cn(-c3ccc(OC(F)(F)F)cc3)c(=O)cc2NCc2c(F)cccc2F)cn1 [Compound 133]	50 to 200	50 to 200
Cn1cc(-c2cn(-c3ccc(OC(F)(F)F)cc3)c(=O)c3[nH]nnc23)cn1 [Compound 631]	< 50	> 200
CCn1cc2c(-c3cnn(C)c3)cn(-c3ccc(OC(F)(F)F)cc3)c(=O)c2n1 [Compound 657]	< 50	< 50
O=c1ccc(-c2ccc(F)cc2)cn1-c1ccccc1F [Compound 290]	50 to 200	> 200
O=c1ccc(-c2cnn(Cc3ccccc3)c2)cn1-c1ccccc1 [Compound 385]	50 to 200	< 50
Cc1cc(=O)n(-c2cccc(NC(N)=O)c2)cc1-c1ccc(F)cc1 [Compound 188]	< 50	< 50
Cc1cc(=O)n(-c2ccc(OC(F)(F)F)cc2)cc1-c1ccc2oc(=O)[nH]c2c1 [Compound 553]	< 50	< 50
CCOc1ccc(-n2cc(-c3cn[nH]c3)c3ccn(C)c3c2=O)c(C)c1 [Compound 601]	< 50	< 50
Cc1cc(=O)n(-c2ccc(OC(F)(F)F)cc2)cc1-c1ccc(Cl)c(F)c1 [Compound 198]	50 to 200	< 50
O=c1c2[nH]ccc2c(-c2cn[nH]c2)cn1-c1ccc(Cl)cc1 [Compound 606]	< 50	< 50
Cn1cc(-c2cn(-c3ccc(OC(F)(F)F)cc3)c(=O)cc2NCc2cnccn2)cn1 [Compound 411]	50 to 200	< 50
Cc1cc(=O)n(-c2ccc(OC(F)(F)F)cc2)cc1-c1ccc(F)c(Cl)c1 [Compound 195]	< 50	< 50
COc1cc(-n2cc(-c3ccc(F)cc3)c(C)cc2=O)cc(OC)c1OC [Compound 180]	50 to 200	< 50
CCOc1ccc(-n2cc(-c3cn[nH]c3)c3nccnc3c2=O)c(C)c1 [Compound 574]	< 50	< 50
Cc1ccc(=O)n(CCc2ccccc2)c1 [Compound 80]	50 to 200	> 200
Cc1cc(=O)n(-c2cccc(C(N)=O)c2)cc1-c1ccc(F)cc1 [Compound 189]	> 200	> 200
CCOc1ccc(-n2cc(-c3ccnnc3)c3nn(CC)nc3c2=O)c(C)c1 [Compound 685]	< 50	< 50
O=c1ccc2c(n1-c1ccc(OC(F)(F)F)cc1)CCC2 [Compound 28]	50 to 200	50 to 200
